Patent US20210238169A1, “PROCESS FOR PREPARING A COMPOUND OF FORMULA (XIII)” (PULMOCIDE LIMITED, priority 2014, published 2021)
Converted amounts (≈) assume the structure as drawn.

What was measured:
[1] = tested on: Aspergillus fumigatus (ATCC 13073); assay: In vivo anti-fungal activity: CFU in lung and galactomannan in BALF and serum; parameters: species or system mice; conditions: for ID50, GM in BALF / ID50, GM in serum / ID50, Lung Fungal Load: Prophylactic Regimen
Protocol: Aspergillus fumigatus (ATCC 13073 [strain: NIH 5233], American Type Culture Collection, Manassas, Va., USA) was grown on Malt agar (Nissui Pharmaceutical, Tokyo, Japan) plates for 6-7 days at RT (24±1° C.). Spores were aseptically dislodged from the agar plates and suspended in sterile distilled water with 0.05% Tween 80 and 0.1% agar. On the day of infection, spore counts were assessed by haemocytometer and the inoculum was adjusted to obtain a concentration of 1.67×10^8 spores mL^−1 of physiological saline.
On day 0, animals were infected with the spore suspension (35 μL intra-nasally).
Test compounds were administered intra-nasally ([…]) once daily, 30 min before infection on day 0 and then on days 1, 2 and 3 (representing prophylactic treatment) or on days 1, 2 and 3 only (representing therapeutic treatment). For extended prophylactic treatment, test compounds (35 μL of a suspension of 0.0032 or 0.016 mg/mL in physiological saline) were administered intra-nasally once daily for seven days; then 30 min before infection on day 0, and thereafter, either on days 1, 2 and 3 after infection, or on day 0 only. The effects of these treatment paradigms were compared with those obtained when treatment was restricted to one day and 30 min before inoculation and then on days 1, 2 and 3 post infection; or reduced still further to one day and 30 min before infection only.
Six hours after the last dose, animals were anesthetised, the trachea was cannulated and BALF was collected. The total number of alveolar cells was determined using a haemocytometer, and the numbers of alveolar macrophages and neutrophils were determined by FACS analysis (EPICS® ALTRA II, Beckman Coulter, Inc., Fullerton, Calif., USA) using anti-mouse MOMA2-FITC (macrophage) or anti-mouse 7/4 (neutrophil), respectively, as previously reported (Kimura et al., 2013). The levels of IFN-γ and IL-17 in BALF, and IL-6 and TNFα in serum were determined using Quantikine® mouse IFN-γ, IL-17, IL-6 or TNF-α ELISA kit (R&D systems, Inc., Minneapolis, Minn., USA) respectively. MDA, an oxidative stress marker, was assayed using OxiSelect® TBARS Assay Kits (MDA Quantitation; Cell Biolabs Inc, San Diego, Calif., USA). Aspergillus GM in serum was determination using Platelia GM-EIA kits (Bio-Rad Laboratories, Redmond, Wash., USA). Cut-off index was calculated by the formula: Cut-off index=OD in sample/OD in cut-off control provided in kit. For tissue fungal load assays, 100 mg of lung tissue was removed aseptically and homogenized in 0.2 mL of 0.1% agar in sterile distilled water. Serially diluted lung homogenates were plated on Malt agar plates (50 μL/plate), and incubated at 24±1° C. for 72 to 96 h. The colonies of A. fumigatus on each plate was counted and the fungal titre presented as CFU per gram of lung tissue.

[2] = tested on: Aspergillus fumigatus (TR34-L98H strain); assay: Aspergillus fumigatus invasion in human alveoli bilayers (transwells), GM in lower chamber; type: cell-based; conditions: Compound (I) 1 μg/mL upper chamber, Posaconazole 0.1 μg/mL lower chamber
Protocol: In vitro models of human alveoli, consisting of a bilayer of human alveolar epithelial cells and endothelial cells, were prepared as previously described (Hope et al., 2007). This system allows administration of a test compound to the upper (“air” space) and/or lower (“systemic” space) compartments. This flexibility has been exploited to explore the effects of combination treatments by dosing Compound (I) to the upper chamber and posaconazole or other anti-fungal agents to the lower chamber. Primary human pulmonary artery endothelial cells (HPAEC) were harvested and diluted to 10^6 cells/mL in EGM-2 media (Lonza, Basel, Switzerland). Transwells were inverted and the cell suspension (100 μL/well) was applied to the base of each transwell. The inverted transwells were incubated at RT within a flow hood for 2 hr after which they were turned upright. EGM-2 media was added to the lower (700 μL/well) and upper (100 μL/well) compartments and the transwells were incubated for 48 hr (37° C., 5% CO2). The EGM-2 media in the lower compartment was then replaced with fresh EGM-2 media. A549 cells were harvested and diluted to 5×10^5 cells/mL in 10% EBM, then added to the upper compartment (100 μL/well) of all transwells and the plates incubated for 72 hr (37° C., 5% CO2). Conidia of Aspergillus fumigatus (the itraconazole sensitive strain NCPF2010 and the itraconazole resistant strain TR34-L98H) were cultured separately in Sabouraud dextrose agar for 3 days. A stock conidia suspension of either strain was prepared from a Sabouraud dextrose agar culture by washing with PBS-tween (10 mL; PBS containing 0.05% Tween-20, 100 U/mL Penicillin and 100 U/mL Streptomycin). The conidia count was assessed using a Neubauer haemocytometer and adjusted to 10^6 conidia/mL with PBS. A working stock of conidia was prepared in EBM (conc of 10^5 conidia/mL) immediately prior to use.
Test and reference compounds (or neat DMSO as the vehicle) were added to the appropriate wells of 24-well plates (3 μL/well containing 600 μL of 2% FBS EBM) for lower compartment treatment and to 96-well plates (1 μL/well containing 200 μL of 2% FBS EBM) for the treatment of the upper compartment, to provide a final DMSO concentration of 0.5%. The media in the upper compartment was aspirated and that containing the appropriate test and reference compounds, or vehicle, were added (100 μL/well). Transwells were then transferred into the 24-well plate containing the test and reference compounds or DMSO vehicle. After incubation for 1 hr (35° C., 5% CO2) the conidia suspension (10 μL/well) was added to the upper compartment of each transwell. Plates were then incubated for 24 hr (35° C., 5% CO2). Supernatants from each compartment (5 μL/compartment) were collected and stored (−20° C.). Media was replaced daily after collection of the supernatants and all wells were treated with test and reference compounds or with DMSO, as described above, for 3 days. Samples continued to be collected until fungal growth was visible by eye in all transwells. The levels of GM in the supernatant in lower compartment were then measured by ELISA (BioRad, CA, USA) as an index of Aspergillus fumigatus invasion.

[3] = Prophylactic Treatment, 0.08 mg/mL intra-nasally
[4] = Prophylactic Treatment, 0.4 mg/mL intra-nasally
[5] = Prophylactic Treatment, 2 mg/mL intra-nasally
[6] = Therapeutic Treatment, 0.4 mg/mL intra-nasally
[7] = Therapeutic Treatment, 2 mg/mL intra-nasally
[8] = Therapeutic Treatment, 10 mg/mL intra-nasally

For `CC[C@@H]([C@H](C)O)n1ncn(-c2ccc(N3CCN(c4ccc(OC[C@@H]5CO[C@@](Cn6cncn6)(c6ccc(F)cc6F)C5)cc4)CC3)cc2)c1=O` [Posaconazole], the “ID50, GM in BALF” value [1] was 1300 µg/mL (≈ 1860 µM), the “ID50, GM in serum” value [1] was 470 µg/mL (≈ 671 µM) and the “ID50, Lung Fungal Load” value [1] was 240 µg/mL (≈ 342 µM). For the same molecule, the “DFB50 (days taken to reach a fungal burden of 50% of control)” value [2] was 1.64 days, the “GM Levels in the Lower Chamber, OD value” ([2]; Treatment Day 0) was 0 OD and the “GM Levels in the Lower Chamber, % inhibition vs. control” value ([2]; Treatment Day 1) was 88%. The “GM Levels in the Lower Chamber, OD value” ([2]; Treatment Day 1) was 0.039 OD, the “GM Levels in the Lower Chamber, % inhibition vs. control” value ([2]; Treatment Day 2) was −2.7% and the “GM Levels in the Lower Chamber, OD value” ([2]; Treatment Day 2) was 1.02 OD. The “GM Levels in the Lower Chamber, % inhibition vs. control” value ([2]; Treatment Day 3) was 1.7%, the “GM Levels in the Lower Chamber, OD value” ([2]; Treatment Day 3) was 0.97 OD and the “GM Levels in the Lower Chamber, % inhibition vs. control” value ([2]; Treatment Day 4) was −1.4%. The “GM Levels in the Lower Chamber, OD value” ([2]; Treatment Day 4) was 1.02 OD.

`Cc1cc(N2CCN(c3ccc(C(=O)Nc4ccc(F)cc4)cc3)CC2)ccc1OC[C@@H]1CO[C@@](Cn2cncn2)(c2ccc(F)cc2F)C1` [Compound (I), 4-(4-(4-(((3R,5R)-5-((1H-1,2,4-triazol-1-yl)methyl)-5-(2,4-difluorophenyl)tetrahydrofuran-3-yl)methoxy)-3-methylphenyl)piperazin-1-yl)-N-(4-fluorophenyl)benzamide] was tested, and the “ID50, GM in BALF” value [1] was under 80 µg/mL, the “ID50, GM in serum” value [1] was under 80 µg/mL and the “ID50, Lung Fungal Load” value [1] was 86 µg/mL (≈ 126 µM). For the same molecule, the CFU in lung [1, 3] was 15.2 ± 13.7 /mg of lung, the “CFU in lung, % inhibition” value [1, 3] was 46% and the “GM in BALF” value [1, 3] was 0.70 ± 0.39 COI. For the same molecule, the “GM in BALF, % inhibition” value [1, 3] was 85%, the GM in serum [1, 3] was 0.81 ± 0.52 COI and the “GM in serum, % inhibition” value [1, 3] was 85%. The CFU in lung [1, 4] was 2.1 ± 1.6 /mg of lung, the “CFU in lung, % inhibition” value [1, 4] was 93% and the “GM in BALF” value [1, 4] was 0.37 ± 0.46 COI. The “GM in BALF, % inhibition” value [1, 4] was 92%, the GM in serum [1, 4] was 0.24 ± 0.18 COI and the “GM in serum, % inhibition” value [1, 4] was 95%. The CFU in lung [1, 5] was 0.8 ± 0.7 /mg of lung, the “CFU in lung, % inhibition” value [1, 5] was 97% and the “GM in BALF” value [1, 5] was 0.13 ± 0.02 COI. The “GM in BALF, % inhibition” value [1, 5] was 97%, the GM in serum [1, 5] was 0.18 ± 0.07 COI and the “GM in serum, % inhibition” value [1, 5] was 97%. The CFU in lung [1, 6] was 3.8 ± 1.0 /mg of lung, the “CFU in lung, % inhibition” value [1, 6] was 87% and the “GM in BALF” value [1, 6] was 0.24 ± 0.06 COI. For the same molecule, the “GM in BALF, % inhibition” value [1, 6] was 95%, the GM in serum [1, 6] was 0.29 ± 0.11 COI and the “GM in serum, % inhibition” value [1, 6] was 95%. For the same molecule, the CFU in lung [1, 7] was 1.9 ± 1.7 /mg of lung, the “CFU in lung, % inhibition” value [1, 7] was 93% and the “GM in BALF” value [1, 7] was 0.22 ± 0.14 COI. The “GM in BALF, % inhibition” value [1, 7] was 95%, the GM in serum [1, 7] was 0.25 ± 0.19 COI and the “GM in serum, % inhibition” value [1, 7] was 95%. The CFU in lung [1, 8] was 0.5 ± 0.3 /mg of lung, the “CFU in lung, % inhibition” value [1, 8] was 98% and the “GM in BALF” value [1, 8] was 0.11 ± 0.05 COI. The “GM in BALF, % inhibition” value [1, 8] was 98%, the GM in serum [1, 8] was 0.24 ± 0.11 COI and the “GM in serum, % inhibition” value [1, 8] was 95%. For the same molecule, the “DFB50 (days taken to reach a fungal burden of 50% of control)” value [2] was 1.10 days, the “GM Levels in the Lower Chamber, OD value” ([2]; Treatment Day 0) was 0 OD and the “GM Levels in the Lower Chamber, OD value” ([2]; Treatment Day 1) was 0.35 OD. For the same molecule, the “GM Levels in the Lower Chamber, OD value” ([2]; Treatment Day 2) was 0.99 OD, the “GM Levels in the Lower Chamber, OD value” ([2]; Treatment Day 3) was 0.99 OD and the “GM Levels in the Lower Chamber, OD value” ([2]; Treatment Day 4) was 1.01 OD.
